The source of these data is US5707979A, “Phosphinic acid derivatives, their preparation and their use” (Hoechst Aktiengesellschaft, priority 1994, dated 1998).

This test concerns the target HIV protease (Human immunodeficiency virus type 1 group M subtype B, UniProt P04585). Put plainly: Test for inhibition of the HIV protease. In kind it is biochemical. As to conditions: carried out as described in EP 0 428 849 A2, read-out: IC50 (concentration at which the activity of the enzyme is halved). Here is the method: 24) Test for inhibition of the HIV protease
The test for inhibition of the HIV protease was carried out as described in EP 0 428 849 A2. The following IC50 values indicate the concentration at which the activity of the enzyme is halved;

For the molecule `O=C1N(Cc2ccc3ccccc3c2)[C@@H](Cc2ccccc2)P(=O)(O)[C@H](Cc2ccccc2)N1Cc1ccc2ccccc2c1` (relative stereo) [Example 19, 2,6-Dibenzyl-3,5-(2-naphthylmethyl)-1-hydroxy-3,5-diaza-4-oxophosphorinane-1-oxide (racemate composed of [2S,6S] and [2R,6R])], the IC50 is 0.32 µM.

Take `O=C1N(Cc2ccc(CO)cc2)[C@@H](Cc2ccccc2)P(=O)(O)[C@H](Cc2ccccc2)N1Cc1ccc(CO)cc1` (relative stereo) [Example 23, ([2R],[6S])-Dibenzyl-3,5-(4-hydroxymethylbenzyl)-1-hydroxy-3,5-diaza-4-oxophosphorinane-1-oxide (racemate composed of [2S,6S] and [2R,6R])]: the IC50 was determined as 0.24 µM.

`O=C1N(Cc2ccccc2)[C@@H](Cc2ccccc2)P(=O)(O)[C@@H](Cc2ccccc2)N1Cc1ccccc1` [Example 10, ([2R],3,5,[6S])-Tetrabenzyl-1-hydroxy-3,5-diaza-4-oxophosphorinone-1-oxide]: the IC50 came out at 50 µM. For the molecule `O=C1N(Cc2ccc(CO)cc2)[C@@H](Cc2ccccc2)P(=O)(O)[C@@H](Cc2ccccc2)N1Cc1ccc(CO)cc1` [Example 12, ([2R],[6S])-Dibenzyl-3,5-(4-hydroxymethylbenzyl)-1-hydroxy-3,5-diaza-4-oxophosphorinone-1-oxide], the IC50 came to 4.8 µM. Take `O=C1N(Cc2ccc(CBr)cc2)[C@@H](Cc2ccccc2)P(=O)(O)[C@@H](Cc2ccccc2)N1Cc1ccc(CBr)cc1` [Example 13, ([2R],[6S])-Dibenzyl-3,5-(4-bromomethylbenzyl)-1-hydroxy-3,5-diaza-4-oxophosphorinone-1-oxide]: the IC50 stood at 18 µM.
